The text below walks through data of patent US7799797B2, “Arylsulfonyl naphthalene derivatives and uses thereof” (Roche Palo Alto LLC, priority 2006, dated 2010).

Assay [1] concerns the target T1, recombinant human 5-HT6 receptor (Homo sapiens, UniProt P50406).
T1 construct: expressed in transfected cells
As to the kind of experiment: Radioligand binding, [3H]LSD competition in HEK293 cell membranes. Particulars: [3H]LSD displacement, pH 7.4, 37° C., read-out: pKi for 5-HT6 (converted). The method, then:
(§1) The binding activity of compounds of this invention in vitro was determined as follows. Duplicate determinations of 5-HT6 ligand affinity were made by competing for binding of [^3H]LSD in cell membranes derived from HEK293 cells stably expressing recombinant human 5-HT6 receptor. Duplicate determinations of 5-HT2A ligand affinity were made by competing for binding of [^3H]Ketanserin (3-(2-(4-(4-fluorobenzoyl)piperidinol)ethyl)-2,4(1H, 3H)-quinazolinedione) in cell membranes derived from CHO-K1 cells stably expressing recombinant human 5-HT2A receptor. Membranes were prepared from HEK 293 cell lines by the method described by Monsma et al., Molecular Pharmacology, Vol. 43 pp. 320-327 (1993), and from CHO-K1 cell lines as described by Bonhaus et al., Br J. Pharmacol. June; 115(4):622-8 (1995).
(§2) For estimation of affinity at the 5-HT6 receptor, all determinations were made in assay buffer containing 50 mM Tris-HCl, 10 mM MgSO4, 0.5 mM EDTA, 1 mM ascorbic acid, pH 7.4 at 37° C., in a 250 microliter reaction volume. […]
(§3) Assay tubes containing [^3H] […] LSD or [^3H]Ketanserin were determined as radioactive counts per minute using Packard TopCount.
(§4) Displacement of [^3H]LSD or [^3H]Ketanserin from the binding sites was quantified by fitting concentration-binding data to a 4-parameter logistic equation: […]

In assay [2] the target is T2, recombinant human 5-HT2A receptor (Homo sapiens, UniProt P28223).
T2 construct: expressed in transfected cells
Briefly: Radioligand binding, [3H]Ketanserin competition in CHO-K1 cell membranes. Particulars: [3H]Ketanserin displacement, pH 7.4, 32° C., read-out: pKi for 5-HT2A (converted). The method, then: as §1, §2, §3, §4

T2 sequence (P28223 whole entry): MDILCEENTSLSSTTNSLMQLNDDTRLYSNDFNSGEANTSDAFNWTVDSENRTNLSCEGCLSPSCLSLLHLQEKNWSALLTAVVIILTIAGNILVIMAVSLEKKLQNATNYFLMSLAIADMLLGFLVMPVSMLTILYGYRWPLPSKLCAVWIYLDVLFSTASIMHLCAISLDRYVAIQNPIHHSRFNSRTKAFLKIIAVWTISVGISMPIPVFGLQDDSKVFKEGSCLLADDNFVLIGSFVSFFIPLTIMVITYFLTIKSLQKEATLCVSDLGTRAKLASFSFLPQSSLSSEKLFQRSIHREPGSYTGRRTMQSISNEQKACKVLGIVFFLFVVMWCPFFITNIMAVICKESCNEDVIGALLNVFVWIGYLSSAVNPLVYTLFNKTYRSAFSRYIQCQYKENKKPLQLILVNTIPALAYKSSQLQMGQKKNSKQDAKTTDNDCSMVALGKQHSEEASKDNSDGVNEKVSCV
T1 sequence (P50406 whole entry): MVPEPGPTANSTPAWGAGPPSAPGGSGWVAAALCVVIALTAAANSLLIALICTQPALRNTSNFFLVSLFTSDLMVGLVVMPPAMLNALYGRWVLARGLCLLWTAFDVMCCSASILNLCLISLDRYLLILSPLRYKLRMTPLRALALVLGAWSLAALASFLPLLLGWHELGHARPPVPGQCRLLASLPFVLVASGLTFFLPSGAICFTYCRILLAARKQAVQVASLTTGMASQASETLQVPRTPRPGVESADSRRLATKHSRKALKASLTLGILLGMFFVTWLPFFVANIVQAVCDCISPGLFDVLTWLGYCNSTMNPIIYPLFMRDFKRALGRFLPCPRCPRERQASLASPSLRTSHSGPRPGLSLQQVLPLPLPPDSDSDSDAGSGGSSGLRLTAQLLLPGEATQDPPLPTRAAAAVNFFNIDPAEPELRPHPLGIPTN

As for `CNCc1cccc2cc(S(=O)(=O)c3ccccc3)ccc12` [Compound 1, (6-Benzenesulfonyl-naphthalen-1-ylmethyl)-methyl-amine], in assay [1], the Ki was around 0.447 nM.
As for `NCc1cccc2cc(S(=O)(=O)c3cccc(F)c3)ccc12` [Compound 2, C-[6-(3-Fluoro-benzenesulfonyl)-naphthalen-1-yl]-methylamine], the Ki in assay [2] is around 5.01 nM.
